Source: US9682151B2, “Peptides whose uptake in cells is controllable” (The Regents of the University of California, priority 2009, dated 2017)

Legend:
HT1080 bearing mice = test: Maximum tolerated dose of pDox
[1] = Stability of pDox by analytical HPLC and mass spectra; type: physicochemical
Experimental: pDox dendrimers were synthesized with the intent to coat the dendrimers with one pDox and three Cy5s thus making the dendrimers brightly fluorescent in the far-red. The pDox dendrimer samples that were incubated overnight in pH 7.4 and pH 5 buffer as described previously were injected on HPLC/mass spec. HPLC was run using 30-60% Acetonitrile in water with 0.5% TFA gradient on a reverse phased column. Doxorubicin (470-490) and Cy5 (645-655) absorbance peaks were monitored to reveal a new doxorubicin peak in the pH 5 sample. This peak was proven to be free pDox based upon the mass spec. For quantitation, dendrimers were run on another HPLC using a different C18 reverse phase column with a 10-90% ACN gradient column with 0.14% TFA which has a fluorescence detector. […] To quantify the amount of pDox that was hydrolyzed off the dendrimer, 200 pmols of sample was injected and compared to a standard curve of 12, 36, and 60 pmols of pDox alone.
pDox was synthesized and reacted with the dendrimer via hydrazone linker as done with doxorubicin dendrimers discussed earlier. […] The labeling was so low that the absorbance was undetectable by UV Spectroscopy. It was only by fluorescence spectra measured on a plate reader that it was clear pDox was conjugated to the dendrimers but this was not able to be quantified. […]

[2] = test system: 8119 murine mammary adenocarcinoma cells; test: Fluorescence uptake of Cy5-labeled selective transport molecules in tumor and muscle (Table 2), 8119; type: in vivo, mice; settings: 8119 allograft
Experimental: (§1) Xenografts with HT1080 human fibroscarcoma cells (ATCC) or MDA-MB 435 human melanoma cells were used. Allografts were generated in the lab with 8119 murine mammary adenocarcinoma cells and B16F10 murine melanoma cells. 1×10^6 cells (either 8119 or BI6F10) were injected intramuscularly into the left flank of albino C57BL/6 mice. Tumor allografts were monitored until tumor size was approximately 1 cm in largest diameter (approximately 7-10 days).
(§2) Briefly 30 mg tissues was homogenized and heated in SDS buffer, frozen, and then imaged by fluorescence. SUV ((moles/g tissue)/(moles injected/weight of the animal)) values were determined by comparing experimental fluorescence to standard curves derived by peptide spiked tissue processed similarly.
(§3) To test whether selective transport molecules are taken up differentially between tumor and normal tissue, allografts derived from spontaneous mammary adenocarcinoma tumors in transgenic mice (line 8119, MMTV-PyMT) and the murine melanoma cell line B16F10 transplanted into immune competent mice, and human cancer cell lines (MDA-MB 435 melanoma and HT1080 fibrosarcoma) xenografted into nude mice, were imaged after intravenous injection of Cy5-labeled selective transport molecules and sufficient time for elimination of uncleaved selective transport molecules. Cy5 was chosen as a labeling marker because of its reduced tissue absorption in the near infrared range.

[3] = as above; type: in vivo, mice; settings: albino C57BL/6, mouse, in vivo, iv; 8119 allograft
Experimental: as §1, §2, §3

[4] = test system: MDA-MB 435 human melanoma cells; test: Fluorescence uptake of Cy5-labeled selective transport molecules in tumor and muscle (Table 2), MDA-MB 435; type: in vivo, mice
Experimental: as §1, §2, §3

[5] = as above; type: in vivo, mice; settings: nude, mouse, in vivo, iv; MDA-MB 435 xenograft
Experimental: as §1, §2, §3

[6] = test system: B16F10 murine melanoma cells; test: Fluorescence uptake of Cy5-labeled selective transport molecules in tumor and muscle (Table 2), B16F10; type: in vivo, mice; settings: B16F10 allograft
Experimental: as §1, §2, §3

[7] = as above; type: in vivo, mice; settings: albino C57BL/6, mouse, in vivo, iv; B16F10 allograft
Experimental: as §1, §2, §3

[8] = Fluorescence uptake of Cy5-labeled selective transport molecules in tumor and muscle (Table 2), HT1080; type: in vivo, mice; settings: nude, mouse, in vivo, iv; HT1080 xenograft
Experimental: as §1, §2, §3

[9] = test system: HT1080 human fibroscarcoma cells; test: as above; type: in vivo, mice; settings: HT1080 xenograft
Experimental: as §1, §2, §3

HT1080 cells = test: Residual tumor cell quantification with Alu PCR after guided surgery; type: in vivo, mice; settings: free 10 nmoles 6 hours, dendrimer 2 nmoles 48 hours prior to surgery
Experimental: Animals used for quantification of residual tumor cells after surgery were performed on xenograft of HT1080 cells generated as detailed above Animals were anesthetized with 80 mg/kg ketamine and 40 mg/kg midazolam. Following skin incision and retraction, tumors were removed with microsurgical technique using a dissecting microscope (Zeiss, Lumar).
Fluorescence guidance of tumor excision was performed as detailed above for the survival studies with GFP, free selective transport molecule (10 nmoles; 6 hours prior to surgery) or dendrimer selective transport molecule (2 nmoles; 48 hours prior to surgery). For animals in the GFP guidance arm, the surgical field was assessed through the dissecting scope with excitation and emission parameters for GFP. […] Following completion of tumor resection, the remaining surgical bed was resected with at least a 5 mm margin in all contiguous dimensions and analyzed for Alu sequences. Alu PCR analysis of the remaining surgical bed for residual tumor cells were performed. […]
To quantify the efficacy of tumor excision with selective transport molecule guidance, we used Alu PCR to measure residual human (cancer) cells remaining in the tumor bed after surgical excision.

Question: What does the source list for COc1cccc2c1C(=O)c1c(O)c3c(c(O)c1C2=O)C[C@@](O)(C(=O)CO)C[C@@H]3O[C@H]1C[C@H](N2C=CCC2)[C@H](O)[C@H](C)O1 [pDox, 2-pyrrolino doxorubicin]?
Answer: effect on tumor growth (HT1080 bearing mice; 0.1 mg/kg): significantly slowed tumor growth; lethality (HT1080 bearing mice; 0.3 and 1 mg/kg, two mice each): died within 24 hours; maximum tolerated dose (HT1080 bearing mice; HT1080 bearing mice): 0.1 mg/kg; stability [1]: severe stability problems

Question: What does the source list for CCN1C(=CC=CC=CC2=[N+](CCCCCC(=O)NCCN3C(=O)CC(SC[C@@H](NC(=O)[C@@H](CCCNC(=N)N)NC(=O)[C@@H](CCCNC(=N)N)NC(=O)[C@@H](CCCNC(=N)N)NC(=O)[C@@H](CCCNC(=N)N)NC(=O)[C@@H](CCCNC(=N)N)NC(=O)[C@@H](CCCNC(=N)N)NC(=O)[C@@H](CCCNC(=N)N)NC(=O)[C@@H](CCCNC(=N)N)NC(=O)[C@@H](CCCNC(=N)N)NC(=O)CNC(=O)[C@H](C)NC(=O)[C@H](CSC)NC(=O)CNC(=O)[C@H](CC(C)C)NC(=O)[C@@H]4CCCN4C(=O)COCCNC(=O)[C@@H](CCC(=O)O)NC(=O)[C@@H](CCC(=O)O)NC(=O)[C@@H](CCC(=O)O)NC(=O)[C@@H](CCC(=O)O)NC(=O)[C@@H](CCC(=O)O)NC(=O)[C@@H](CCC(=O)O)NC(=O)[C@@H](CCC(=O)O)NC(=O)[C@@H](CCC(=O)O)NC(=O)CCC(=O)O)C(N)=O)C3=O)c3ccc(S(=O)(=O)[O-])cc3C2(C)C)C(C)(C)c2cc(S(=O)(=O)O)ccc21 (single isomer, unassigned) [Free Selective Transport Molecules]?
Answer: Ratio (tumor to muscle) [2]: 3.5; Muscle (fluorescence uptake) ([2]; Cy5 label, intravenous): 0.11 ± 0.06; Tumor (fluorescence uptake) ([2]; Cy5 label, intravenous): 0.39 ± 0.12; tissue to tissue ratio [3]: 3.5; Ratio (tumor to muscle) ([4]; MDA-MB 435 xenograft): 2.45; Muscle (fluorescence uptake) ([4]; MDA-MB 435 xenograft, Cy5 label, intravenous): 0.29 ± 0.068; Tumor (fluorescence uptake) ([4]; MDA-MB 435 xenograft, Cy5 label, intravenous, SUV defined): 0.17 ± 0.05; contrast between tumor and adjacent normal tissue ([4]; same figures as the MDA-MB 435 ratios of Table 2): 2.45 fold; tissue to tissue ratio [5]: 2.45; Ratio (tumor to muscle) [6]: 2.4; Muscle (fluorescence uptake) ([6]; Cy5 label, intravenous): 0.10 ± 0.03; Tumor (fluorescence uptake) ([6]; Cy5 label, intravenous): 0.24 ± 0.06; tissue to tissue ratio [7]: 2.4; tissue to tissue ratio [8]: 3.82; Ratio (tumor to muscle) [9]: 3.82; Muscle (fluorescence uptake) ([9]; Cy5 label, intravenous): 0.11 ± 0.08; Tumor (fluorescence uptake) ([9]; Cy5 label, intravenous): 0.42 ± 0.08; log [DNA] (residual tumor DNA in surgical bed) (HT1080 cells): 4.67±0.33
